Results from PubChem BioAssay AID1259411 (Chemical Carcinogenesis Research Information System (CCRIS), 2018).
The source made the active and inactive calls. No rule for the calls is given here.

System: rodent carcinogenicity bioassays, tumor incidence
Experiment: CCRIS carcinogenicity studies
In short: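 NCI-built, expert-reviewed records of carcinogenicity and related test outcomes (mutagenicity, tumor promotion/inhibition) compiled from published and report sources, historical span 1985-2011, not updated.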

## CN(N=O)C(=O)N[C@@H](C=O)[C@@H](O)[C@H](O)[C@H](O)CO
Species: HAMSTER, Route: INTRAPERITONEAL, INTRAVENOUS, Tumor Site: Type of Lesion: LIVER
  carcinogen call: active; positive
Species: MOUSE, Route: INTRAPERITONEAL, Tumor Site: Type of Lesion: KIDNEY, LUNG, UTERUS, Tumor Site: Type of Lesion: KIDNEY, LUNG, UTERUS
  carcinogen call: active; positive
Species: RAT, Route: INTRAPERITONEAL, Tumor Site: Type of Lesion: KIDNEY, LIVER
  carcinogen call: active; positive
Species: RAT, Route: INTRAVENOUS, Tumor Site: Type of Lesion: KIDNEY
  carcinogen call: active; positive
Species: RAT, Strain/Sex: SHR/MALE, Route: INTRAPERITONEAL, Dose: 0, 37.5, 50, 62.5, 75 MG/KG INJECTED ONCE (STUDY DURATION: 12 MO), Dose: 0, 37.5, 50, 62.5, 75 MG/KG INJECTED ONCE (STUDY DURATION: 12 MO), Tumor Site: Type of Lesion: LIVER: HEPATOMA, KIDNEY: NEPHROBLASTOMA, PANCREATIC ISLETS: TUMOR, Tumor Site: Type of Lesion: LIVER: HEPATOMA, KIDNEY: NEPHROBLASTOMA, PANCREATIC ISLETS: TUMOR
  carcinogen call: active; positive
Species: RAT, Strain/Sex: WISTAR/MALE, Route: INTRAPERITONEAL, Dose: 0, 100, 125, 137.5, 150 MG/KG INJECTED ONCE (STUDY DURATION: 12 M0), Dose: 0, 100, 125, 137.5, 150 MG/KG INJECTED ONCE (STUDY DURATION: 12 M0), Tumor Site: Type of Lesion: LIVER: HEPATOMA, KIDNEY: NEPHROBLASTOMA
  carcinogen call: active; positive

## S=c1[nH]c2ccccc2s1
Species: MOUSE, Strain/Sex: B6C3F1/FEMALE, Route: GAVAGE, Dose: 0, 375, 750 MG/KG IN CORN OIL 5D/WK FOR 103 WK (STUDY DURATION: 104 WK), Dose: 0, 375, 750 MG/KG IN CORN OIL 5D/WK FOR 103 WK (STUDY DURATION: 104 WK), Tumor Site: Type of Lesion: LIVER: HEPATOCELLULAR ADENOMA OR CARCINOMA
  carcinogen call: equivocal
Species: MOUSE, Strain/Sex: B6C3F1/MALE, Route: GAVAGE, Dose: 0, 375, 750 MG/KG IN CORN OIL 5D/WK FOR 103 WK (STUDY DURATION: 104 WK), Dose: 0, 375, 750 MG/KG IN CORN OIL 5D/WK FOR 103 WK (STUDY DURATION: 104 WK)
  carcinogen call: inactive; negative
Species: RAT, Strain/Sex: F344/FEMALE, Route: GAVAGE, Dose: 0, 188, 375 MG/KG IN CORN OIL 5D/WK FOR 103 WK (STUDY DURATION: 105 WK), Dose: 0, 188, 375 MG/KG IN CORN OIL 5D/WK FOR 103 WK (STUDY DURATION: 105 WK), Tumor Site: Type of Lesion: PITUITARY GLAND: ADENOMA, PITUITARY GLAND: ADENOMA OR ADENOCARCINOMA, ADRENAL GLAND: PHEOCHROMOCYTOMA, Tumor Site: Type of Lesion: PITUITARY GLAND: ADENOMA, PITUITARY GLAND: ADENOMA OR ADENOCARCINOMA, ADRENAL GLAND: PHEOCHROMOCYTOMA
  carcinogen call: active; positive
Species: RAT, Strain/Sex: F344/MALE, Route: GAVAGE, Dose: 0, 375, 750 MG/KG IN CORN OIL 5D/WK FOR 103 WK (STUDY DURATION: 105 WK), Dose: 0, 375, 750 MG/KG IN CORN OIL 5D/WK FOR 103 WK (STUDY DURATION: 105 WK), Tumor Site: Type of Lesion: HEMATOPOIETIC SYSTEM: MONONUCLEAR CELL LEUKEMIA, PANCREAS: ACINAR CELL ADENOMA
  carcinogen call: active; positive

## O=C1c2ccccc2CN2C(=O)c3ccccc3CN12
Species: MOUSE, Strain/Sex: BALB/FEMALE, Route: ORAL, Dose: 0, 300, 600, 1200 PPM IN DIET FOR 80 WK (STUDY DURATION: 120 WK), Dose: 0, 300, 600, 1200 PPM IN DIET FOR 80 WK (STUDY DURATION: 120 WK), Tumor Site: Type of Lesion: LIVER: HEPATOCELLULAR ADENOMA OR CARCINOMA, ANGIOSARCOMA
  carcinogen call: active; positive
Species: MOUSE, Strain/Sex: BALB/MALE, Route: ORAL, Dose: 0, 300, 600, 1200 PPM IN DIET FOR 80 WK (STUDY DURATION: 120 WK), Dose: 0, 300, 600, 1200 PPM IN DIET FOR 80 WK (STUDY DURATION: 120 WK), Tumor Site: Type of Lesion: LIVER: ANGIOMA, ANGIOSARCOMA
  carcinogen call: active; positive

## C[C@]12CC[C@@H]3c4ccc(O)cc4CC[C@H]3[C@@H]1C[C@@H](O)C2=O
Species: HAMSTER, Strain/Sex: SYRIAN/MALE, Route: SUBCUTANEOUS IMPLANT, Dose: 0, 20 MG IN PELLETS IMPLANTED EVERY 2.5 MO FOR 9 MO (STUDY DURATION: 9 MO), Tumor Site: Type of Lesion: KIDNEY: TUMOR
  carcinogen call: active; positive
